Laboratory results reported in patent publication US4147767A, “Albumin medicament carrier system” (priority 1977, dated 1979).

Test system: L-676 mouse embryo fibroblasts
Assay: Mouse L-Cell growth inhibition test
Type: cell-based
Details: 72 hours
Procedure: L-676 mouse embryo fibroblasts were grown and maintained in liquid shake cultures of Swims-67G medium fortified by the addition of 5% fetal calf serum and supplemented with 1%, 200 millimolar glutamine.
Free drugs (without a carrier) used as controls were solubilized in either sterile distilled water or acetone and then added to the growth medium.
Drug containing HSA spherules were resuspended in growth medium. A sonifying water bath was employed to aid in suspension.
A 10% (v/v) inoculum of L-cells was employed in a final volume of 20 ml of growth medium containing suspended drug-containing microspheres or free control drug. […] All tests were performed in duplicate.

Row | SMILES | % L-Cell Inhibition (1 microgram drug/ml) [%] | % L-Cell Inhibition (10 micrograms drug/ml) [%] | % L-Cell Inhibition (50 micrograms drug/ml) [%] | % L-Cell Inhibition (100 micrograms drug/ml) [%] | % L-Cell Inhibition (25.0 μg drug/ml) [%]
1 | O=c1[nH]cc(F)c(=O)[nH]1 [Pure 5-fluorouracil, 5-fluorouracil] | 67 | 88 | 93 | 93 | –
2 | Sc1ncnc2nc[nH]c12 [6-Mercaptopurine] | – | – | 94 | – | –
3 | CC(=O)OCC(=O)[C@@]1(O)CC[C@H]2[C@@H]3CCC4=CC(=O)CC[C@]4(C)[C@H]3[C@@H](O)C[C@@]21C [Hydrocortisone Acetate] | 0 | 0 | 73 | 88 | –
4 | COc1cc2c(c(OC)c1OC)-c1ccc(OC)c(=O)cc1[C@@H](NC(C)=O)CC2 [Colchicine] | 91 | 99 | – | – | –
5 | CS(=O)(=O)OCCCCOS(C)(=O)=O [Busulfan] | – | – | – | – | 69
6 | O=C(O)CCCc1ccc(N(CCCl)CCCl)cc1 [Chlorambucil] | 0 | 68 | 97 | – | –
7 | NC(=O)NO [Hydroxyurea] | 0 | 22 | – | – | –
8 | Nc1nc2nc[nH]c2c(=S)[nH]1 [6-Thioguanine] | 65 | 88 | 92 | – | –
